The nature of data set [1]: Drug distribution in Kunming mouse liver at 6 mg/kg, iv measured after 3 hrs by confocal scanning microscopic analysis. It is filed as ADME, organism-based. The conditions noted are these: in vivo.
Data set [2] can be described thus: Drug uptake in human HeLa cells at 10 uM after 15 mins by confocal scanning microscopic analysis. It is filed as ADME, cell-based. The conditions noted are these: 0.25 h.
Data set [3] can be described thus: Drug uptake in human HepG2 cells pretreated with galactose for 30 mins followed by compound addition and measured after 15 mins by confocal scanning microscopic analysis. It counts as ADME, cell-based. The conditions noted are these: hepg2, 0.75 h, time 45 min.
Data set [4] in a line: Drug uptake in human SGC-7901 cells at 10 uM after 15 mins by confocal scanning microscopic analysis. It counts as ADME, cell-based. The conditions noted are these: sgc-7901, 0.25 h.
Data set [5] in a line: Drug uptake in human HepG2 cells at 10 uM after 15 mins by confocal scanning microscopic analysis. The conditions noted are these: hepg2, 0.25 h. It is filed as ADME, cell-based.
Data set [6] is described as follows: Drug uptake in human A549 cells at 10 uM after 15 mins by confocal scanning microscopic analysis. It is filed as ADME, cell-based. The conditions noted are these: a549, 0.25 h.
Data set [7] in a line: Drug distribution in Kunming mouse liver at 8.4 mg/kg, iv measured after 3 hrs by confocal scanning microscopic analysis. It counts as ADME, organism-based. The conditions noted are these: in vivo.
The next data set has as its system HepG2. The data set is described as follows: Cytotoxicity against human HepG2 cells at 10 to 80 uM after 24 hrs. It counts as cell-based. The conditions noted are these: hepg2, 24 h, dose 10-80 µM.
A short description of data set [8]: Toxicity in Kunming mouse assessed as change in body weight at 50 mg/kg. It is filed as organism-based. The conditions noted are these: in vivo.
Data set [9] relates to H22. The data set is described as follows: Antitumor activity against mouse H22 cells implanted in Kunming mouse assessed as tumor growth inhibition at 10 mg/kg measured on day 7. It is filed as functional. Further details: scale not given: the % may be the effect or the level left. The conditions noted are these: time 7 day.
Data set [10] in a line: Prodrug release at pH 6.5 assessed as stability after 120 mins in presence of GSH by LC-MS analysis. The conditions noted are these: pH 6.5, 2 h. It is filed as ADME.
For data set [11], the system named is H22. The data set is described as follows: Antitumor activity against mouse H22 cells implanted in Kunming mouse assessed as tumor growth inhibition at 10 mg/kg measured on day 7 by H and E staining based histopathological analysis. It is filed as functional, organism-based. The conditions noted are these: time 7.0 day.
The nature of data set [12]: Toxicity in Kunming mouse implanted with mouse H22 cells assessed as change in organ weight at 10 mg/kg after 7 days. It counts as organism-based. The conditions noted are these: in vivo, 168 h, time 7 day.
A short description of data set [13]: Prodrug release at pH 6.5 assessed as stability after 48 hrs in absence of GSH by LC-MS analysis. It counts as ADME. The conditions noted are these: pH 6.5, 48 h.
The nature of data set [14]: Drug distribution in Kunming mouse liver at 10 mg/kg, iv measured after 3 hrs by confocal scanning microscopic analysis. It counts as ADME, organism-based. The conditions noted are these: in vivo.
The nature of data set [15]: Prodrug release at pH 7.4 assessed as stability after 48 hrs in absence of GSH by LC-MS analysis. The conditions noted are these: pH 7.4, 48 h. It counts as ADME.
Data set [16] can be described thus: Toxicity in Kunming mouse implanted with mouse H22 cells assessed as change in body weight at 10 mg/kg after 7 days. It is filed as organism-based. The conditions noted are these: in vivo, 168 h, time 7 day.
Data set [17] is described as follows: Toxicity in Kunming mouse assessed as change in organ weight at 50 mg/kg. It counts as organism-based. The conditions noted are these: in vivo.
Data set [18] can be described thus: Prodrug release assessed as stability after 24 hrs in presence of NADH by LC-MS analysis. It counts as ADME.

Active and inactive are the calls of the source. No cut-off for these calls is given here.

We go through 3 compounds from ChEMBL document CHEMBL5029167, “Development of Asialoglycoprotein-Mediated Hepatocyte-Targeting Antitumor Prodrugs Triggered by Glutathione” (J Med Chem, 2021).

`C=C[C@]1(C)CC[C@@H](C(=C)Cn2cc(CN3C(=O)c4cccc5c(N6CCN(C(=O)OCCSSCCOCc7cn([C@@H]8O[C@H](CO)[C@H](O)[C@H](O)[C@H]8O)nn7)CC6)ccc(c45)C3=O)nn2)C[C@H]1C(=C)C`: the Drug uptake entry was “Active” in data set [1]; “Active” in [2]; “Not Active” in data set [3]; “Active” in data set [4]; “Active” in data set [5]; “Active” in [6].

`C=C[C@]1(C)CC[C@@H](C(=C)Cn2cc(CN3C(=O)c4cccc5c(N6CCN(C(=O)OCCSSCCOCC(=O)NC(COCc7cn([C@@H]8O[C@H](CO)[C@H](O)[C@H](O)[C@H]8O)nn7)COCc7cn([C@@H]8O[C@H](CO)[C@H](O)[C@H](O)[C@H]8O)nn7)CC6)ccc(c45)C3=O)nn2)C[C@H]1C(=C)C`: the Drug uptake entry is on record as “Active” in [2]; “Not Active” in [3]; “Active” in data set [4]; “Active” in data set [7]; “Active” in data set [5]; “Active” in data set [6]. In addition, the Activity entry in the data set with HepG2 is recorded as “Non-Toxic”.

In the case of `C=C[C@]1(C)CC[C@@H](C(=C)Cn2cc(CN3C(=O)c4cccc5c(N6CCN(C(=O)OCCSSCCOCC(=O)NC(COCc7cn([C@@H]8O[C@H](CO)[C@H](O)[C@H](O)[C@H]8O)nn7)(COCc7cn([C@@H]8O[C@H](CO)[C@H](O)[C@H](O)[C@H]8O)nn7)COCc7cn([C@@H]8O[C@H](CO)[C@H](O)[C@H](O)[C@H]8O)nn7)CC6)ccc(c45)C3=O)nn2)C[C@H]1C(=C)C`, the Activity entry in [8] is reported as “Non-Toxic”; in the data set with H22 [9], 51.22%; in data set [12] it was “Non-Toxic”; in data set [16], “Non-Toxic”; in data set [17], “Non-Toxic”; with HepG2, “Non-Toxic”. The Stability result is reported as “Unstable” in [10], “Stable” in data set [13], “Stable” in [15] and 98.9% in data set [18]. Moreover, the outcome in the data set with H22 [11] was Active. For the same compound, the Drug uptake result in data set [2] was “Active”; in data set [14], “Active”; in data set [3], “Not Active”; in data set [4] it was “Active”; in [5], “Active”; in data set [6], “Active”.
